A word on the pKa: it is the negative logarithm of the acid dissociation constant. Low values mean a group that gives up its proton readily, high ones a group that holds its proton tightly.

Structures are written as SMILES.

The nature of this data set: pKa value by 1H NMR spectroscopy. Type of data set: physicochemical.
`c1c[nH]cn1` [IMIDAZOLE] registered a pKa of 7.14.

`CCOC(=O)CC(CC(=O)OCC)n1ccnc1` displayed a pKa of 6.45.

`COC(=O)Cn1ccnc1` registered a pKa of 7.1. For the molecule `O=C(O)CC(CC(=O)O)n1ccnc1`, the pKa came out at 7.37.

With `CCOC(=O)CC(C(=O)OCC)n1ccnc1` (centres undefined), the pKa was 6.02. `O=C(O)CC(C(=O)O)n1ccnc1` (centres undefined): the pKa was found to be 7.32. The molecule `CCOC(=O)C(C(=O)OCC)n1ccnc1` returned a pKa of 5.02. With `O=C(O)Cn1ccnc1`, the pKa worked out at 7.23. `CCOC(=O)CC(C(=O)O)n1ccnc1` (centres undefined) had a pKa of 6.86.

Values taken from ChEMBL document CHEMBL1150497, “Imidazol-1-ylalkanoate esters and their corresponding acids. A novel series of extrinsic 1H NMR probes for intracellular pH” (Bioorg Med Chem Lett, 1992).
